Measured values: US6642392B1 (priority 1997, dated 2003)
Read-outs that look alike come from different tables or passages of the source.

Legend:
Format in all cases: in vivo
[1] = tested on: Eiysiphe graminis f. sp. tritici; test: Test A: wheat powdery mildew, preventive spray on wheat seedlings; conditions: for Test A disease control rating (100 = 100% disease control, 0 = no disease control): rating relative to controls; for Test A disease control rating: wheat powdery mildew
Method in brief: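 Preventive test: seedlings inoculated with powdery mildew spores one day after run-off spraying of a suspension. Ratings after 7 days in a 20° C growth chamber express percent disease control versus controls.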

Puccinia recondita = test: Test B: wheat leaf rust, preventive spray on wheat seedlings; conditions: for Test B disease control rating (100 = 100% disease control, 0 = no disease control): rating relative to controls; for Test B disease control rating: wheat leaf rust
Method in brief: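 Preventive test: P. recondita spores were applied one day after a run-off spray of compound suspension on wheat seedlings. Plants had 24 h at 20 °C in saturated air plus 6 days in a 20 °C growth chamber. Scoring is % disease control (100 = full) relative to controls.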

Pyricularia oryzae = conditions: for Test C disease control rating (100 = 100% disease control, 0 = no disease control): rating relative to controls; for Test C disease control rating: rice blast
Phytophthora infestans = conditions: for Test D disease control rating (100 = 100% disease control, 0 = no disease control): rating relative to controls; for Test D disease control rating: tomato late blight
Botrytis cinerea = test: Test E: gray mold, preventive spray on cucumber seedlings; conditions: for Test E disease control rating (100 = 100% disease control, 0 = no disease control): rating relative to controls; for Test E disease control rating: gray mold on cucumber
Method in brief: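 Preventive spray on cucumber seedlings used a suspension (3% acetone, 250 ppm Trem 014), applied to run-off one day before inoculation with Botrytis cinerea spores. Plants were held 48 h at 20° C in saturated air, then 5 days at 20° C. Percent disease control was scored relative to untreated plants.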

[2] = wheat seedlings sprayed to run-off, inoculated the following day, unmarked compounds (standard test rate)
[3] = rice seedlings sprayed to run-off, inoculated the following day, unmarked compounds (standard test rate)
[4] = tomato seedlings sprayed to run-off, inoculated the following day, unmarked compounds (standard test rate)
[5] = cucumber seedlings sprayed to run-off, inoculated the following day, unmarked compounds (standard test rate)
[6] = 100 = 100% disease control, 0 = no control relative to controls, unmarked entries (standard test concentration)
[7] = 100 = 100% disease control, 0 = no control, unmarked entries (standard test concentration)
[8] = tested at 40 ppm, wheat seedlings

| SMILES | Test A disease control rating [1, 6] [%] | Test B disease control rating (Puccinia recondita; [7]) [%] | Test C disease control rating (Pyricularia oryzae; [7]) [%] | Test D disease control rating (Phytophthora infestans; [7]) [%] | Test E disease control rating (Botrytis cinerea; [7]) [%] | further results |
| --- | --- | --- | --- | --- | --- | --- |
| C=CCc1cccc(C#N)c1OCC(C)NC(=O)C1(CC)C(C)C1(Cl)Cl (mixture of isomers) [compound 254] | – | – | – | – | – | Test A disease control rating (100 = 100% disease control, 0 = no disease control) [1, 2]: 0%; Test B disease control rating (100 = 100% disease control, 0 = no disease control) (Puccinia recondita; [2]): 0%; Test C disease control rating (100 = 100% disease control, 0 = no disease control) (Pyricularia oryzae; [3]): 53%; Test D disease control rating (100 = 100% disease control, 0 = no disease control) (Phytophthora infestans; [4]): 0%; Test E disease control rating (100 = 100% disease control, 0 = no disease control) (Botrytis cinerea; [5]): 0% |
| CC(COc1ccc(Br)cc1)NC(=O)C(C#N)C(C)(C)C (single isomer, unassigned) [10b] | 62 | 67 | 86 | 95 | 0 | – |
| CCC1(C(=O)NC(C)COc2cccc(CF)c2)C(C)C1(Cl)Cl (mixture of isomers) [compound 317] | – | – | – | – | – | Test A disease control rating (100 = 100% disease control, 0 = no disease control) [1, 8]: 57%; Test B disease control rating (100 = 100% disease control, 0 = no disease control) (Puccinia recondita; [8]): 0%; Test C disease control rating (100 = 100% disease control, 0 = no disease control) (Pyricularia oryzae; tested at 40 ppm, rice seedlings): 85%; Test D disease control rating (100 = 100% disease control, 0 = no disease control) (Phytophthora infestans; tested at 40 ppm, tomato seedlings): 19%; Test E disease control rating (100 = 100% disease control, 0 = no disease control) (Botrytis cinerea; tested at 40 ppm, cucumber seedlings): 0% |
| CC(COc1ccccc1)NC(=O)C(C#N)C(C)(C)C (single isomer, unassigned) [1b] | 34 | 11 | 74 | 0 | 0 | – |
| CC(COc1cccc(F)c1C#N)NC(=O)C(C#N)C(C)(C)C (mixture of isomers) [compound 39] | 0 | 0 | 86 | 2 | 0 | – |
| C[C@H](COc1cccc(C(F)(F)F)c1)NC(=O)C(C#N)C(C)(C)C (single isomer, unassigned) [18b] | 77 | 0 | 94 | 0 | 0 | – |
| CC(COn1c(Cl)c(Cl)c(Cl)c1C#N)NC(=O)C(C#N)C(C)(C)C (mixture of isomers) [compound 52] | 71 | 86 | 0 | 81 | 0 | – |
| CCC1(C(=O)NCC=Cc2ccc(F)cc2F)C(C)C1(Cl)Cl (stereo not drawn) [compound 162] | 0 | 0 | 74 | 95 | 82 | – |
| CC(COc1ccccc1)NC(=O)C1(C)C(C)C1(Cl)Cl (mixture of isomers) [compound 310] | – | – | – | – | – | Test A disease control rating (100 = 100% disease control, 0 = no disease control) [1, 2]: 84%; Test B disease control rating (100 = 100% disease control, 0 = no disease control) (Puccinia recondita; [2]): 25%; Test C disease control rating (100 = 100% disease control, 0 = no disease control) (Pyricularia oryzae; [3]): 53%; Test D disease control rating (100 = 100% disease control, 0 = no disease control) (Phytophthora infestans; [4]): 0%; Test E disease control rating (100 = 100% disease control, 0 = no disease control) (Botrytis cinerea; [5]): 18% |
| CCC1(C(=O)NC(C)COc2ccc(Cl)c(Cl)c2Cl)C(C)C1(Cl)Cl (stereo not drawn) [compound 243] | – | – | – | – | – | Test A disease control rating (100 = 100% disease control, 0 = no disease control) [1, 2]: 38%; Test B disease control rating (100 = 100% disease control, 0 = no disease control) (Puccinia recondita; [2]): 0%; Test C disease control rating (100 = 100% disease control, 0 = no disease control) (Pyricularia oryzae; [3]): 74%; Test D disease control rating (100 = 100% disease control, 0 = no disease control) (Phytophthora infestans; [4]): 74%; Test E disease control rating (100 = 100% disease control, 0 = no disease control) (Botrytis cinerea; [5]): 0% |
| CC(C=Cc1cc(F)ccc1F)NC(=O)C(C#N)C(C)(C)C (single isomer, unassigned) [229a] | – | – | – | – | – | Test A disease control rating (100 = 100% disease control, 0 = no disease control) [1, 2]: 0%; Test B disease control rating (100 = 100% disease control, 0 = no disease control) (Puccinia recondita; [2]): 0%; Test C disease control rating (100 = 100% disease control, 0 = no disease control) (Pyricularia oryzae; [3]): 100%; Test D disease control rating (100 = 100% disease control, 0 = no disease control) (Phytophthora infestans; [4]): 0%; Test E disease control rating (100 = 100% disease control, 0 = no disease control) (Botrytis cinerea; [5]): 55% |
| CCC1(C(=O)NC(C)COc2cccc(F)c2)C(C)C1(Cl)Cl (mixture of isomers) [79b] | – | – | – | – | – | Test A disease control rating ([1]; tested at 40 ppm): 0%; Test B disease control rating (Puccinia recondita; tested at 40 ppm): 0%; Test C disease control rating (Pyricularia oryzae; tested at 40 ppm): 100%; Test D disease control rating (Phytophthora infestans; tested at 40 ppm): 0%; Test E disease control rating (Botrytis cinerea; tested at 40 ppm): 0% |
| CC(COc1ccccc1F)NC(=O)C1(C)CC1(Cl)Cl (mixture of isomers) [compound 315] | – | – | – | – | – | Test A disease control rating (100 = 100% disease control, 0 = no disease control) [1, 2]: 60%; Test B disease control rating (100 = 100% disease control, 0 = no disease control) (Puccinia recondita; [2]): 99%; Test C disease control rating (100 = 100% disease control, 0 = no disease control) (Pyricularia oryzae; [3]): 51%; Test D disease control rating (100 = 100% disease control, 0 = no disease control) (Phytophthora infestans; [4]): 16%; Test E disease control rating (100 = 100% disease control, 0 = no disease control) (Botrytis cinerea; [5]): 0% |
| CCC1(C(=O)NC(C)COc2c(F)c(F)cc(F)c2F)C(C)C1(Cl)Cl (stereo not drawn) [compound 249] | – | – | – | – | – | Test A disease control rating (100 = 100% disease control, 0 = no disease control) [1, 2]: 0%; Test B disease control rating (100 = 100% disease control, 0 = no disease control) (Puccinia recondita; [2]): 0%; Test C disease control rating (100 = 100% disease control, 0 = no disease control) (Pyricularia oryzae; [3]): 94%; Test D disease control rating (100 = 100% disease control, 0 = no disease control) (Phytophthora infestans; [4]): 0%; Test E disease control rating (100 = 100% disease control, 0 = no disease control) (Botrytis cinerea; [5]): 0% |
| C[C@H](COc1ccc(F)c(F)c1)NC(=O)C(C#N)C(C)(C)C (single isomer, unassigned) [30a] | 0 | 0 | 100 | 0 | 0 | – |
| C[C@H](COc1ccccc1Br)NC(=O)C(C#N)C(C)(C)C (single isomer, unassigned) [8c] | 0 | 0 | 100 | 0 | 0 | – |
| C[C@H](COc1ccc(F)c(F)c1)NC(=O)C(C#N)C(C)(C)C (single isomer, unassigned) [30b] | 77 | 27 | 97 | 0 | 0 | – |
| C=CC(C)(C)C(C#N)C(=O)N[C@H](C)COc1cc(F)ccc1Cl (single isomer, unassigned) [192a] | 0 | 0 | 100 | 0 | 85 | – |
| CCC1(C(=O)NC(C)COc2ccccc2Cl)C(C)C1(Cl)Cl (mixture of isomers) [81a] | 0 | 0 | 0 | 0 | 55 | – |
| CCC1(C(=O)NC(C)COn2cc(Br)cc2C#N)C(C)C1(Cl)Cl (mixture of isomers) [compound 137] | 0 | 0 | 53 | 0 | 0 | – |
| CC(COc1c(F)cccc1F)NC(=O)C(C#N)C(C)(C)C (mixture of isomers) [29b] | 0 | 0 | 100 | 23 | 0 | – |
| CCC1(C(=O)NCCCc2ccccc2)C(C)C1(Cl)Cl (stereo not drawn) [compound 154] | 52 | 0 | 52 | 0 | 0 | – |
| C=CCc1ccccc1OCC(C)NC(=O)C(C#N)C(C)(C)C (mixture of isomers) [25a] | 95 | 28 | 32 | 0 | 0 | – |
| CCC1(C(=O)NC(C)COc2ccccc2C(C)C)C(C)C1(Cl)Cl (stereo not drawn) [compound 99] | – | – | – | – | – | Test A disease control rating ([1]; tested at 40 ppm): 83%; Test B disease control rating (Puccinia recondita; tested at 40 ppm): 0%; Test C disease control rating (Pyricularia oryzae; tested at 40 ppm): 0%; Test D disease control rating (Phytophthora infestans; tested at 40 ppm): 68%; Test E disease control rating (Botrytis cinerea; tested at 40 ppm): 0% |
| CCC1(C(=O)NC(C)COc2ccccc2C(F)(F)F)C(C)C1(Cl)Cl (mixture of isomers) [94a] | 0 | 0 | 0 | 0 | 0 | – |
| C[C@H](COc1cc(F)ccc1Br)NC(=O)C(C#N)C(C)(C)C (single isomer, unassigned) [166a] | 0 | 0 | 99 | 76 | 58 | – |
| C[C@H](COc1ccc(Cl)c(F)c1)NC(=O)C(C#N)C(C)(C)C (single isomer, unassigned) [182b] | 0 | 68 | 94 | 0 | 0 | – |
